Experiments:
EGFR = molecular target: T1, EGFR (Homo sapiens, UniProt P00533); assay: Biochemical EGFR Assay; parameters: concentration or dose not given beside the values; details: protocol P.167
T1 construct: endogenous in cells; host or cells: A431 cells (lysate, captured with SUMO1 anti-EGFR antibody)
Outline: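 Readout is ABTS absorbance at 410 nm after anti-phosphotyrosine and HRP-antibody detection of EGFR autophosphorylation. The kinase was immunocaptured from A431 lysate, exposed 30 min to test compound diluted 1:10 in TBS, then phosphorylated for 5 min with ATP/MnCl2 before an EDTA stop.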

PDGF-R = PDGF-R Assay (cellular ELISA, U1242 cells); format: cell-based; parameters: concentration or dose not given beside the values; details: protocol P.119
Outline: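 Cellular ELISA for receptor autophosphorylation: after 2 hr test-compound treatment of serum-free U1242 cells at 37°C, ligand is added for 5–10 min, cells are lysed (HNTG) and receptor captured by specific antibody. Anti-phosphotyrosine plus secondary antibody with ABTS colour read at 410/630 nm, compared with compound-free control cells.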

T1 sequence (P00533 25-1210): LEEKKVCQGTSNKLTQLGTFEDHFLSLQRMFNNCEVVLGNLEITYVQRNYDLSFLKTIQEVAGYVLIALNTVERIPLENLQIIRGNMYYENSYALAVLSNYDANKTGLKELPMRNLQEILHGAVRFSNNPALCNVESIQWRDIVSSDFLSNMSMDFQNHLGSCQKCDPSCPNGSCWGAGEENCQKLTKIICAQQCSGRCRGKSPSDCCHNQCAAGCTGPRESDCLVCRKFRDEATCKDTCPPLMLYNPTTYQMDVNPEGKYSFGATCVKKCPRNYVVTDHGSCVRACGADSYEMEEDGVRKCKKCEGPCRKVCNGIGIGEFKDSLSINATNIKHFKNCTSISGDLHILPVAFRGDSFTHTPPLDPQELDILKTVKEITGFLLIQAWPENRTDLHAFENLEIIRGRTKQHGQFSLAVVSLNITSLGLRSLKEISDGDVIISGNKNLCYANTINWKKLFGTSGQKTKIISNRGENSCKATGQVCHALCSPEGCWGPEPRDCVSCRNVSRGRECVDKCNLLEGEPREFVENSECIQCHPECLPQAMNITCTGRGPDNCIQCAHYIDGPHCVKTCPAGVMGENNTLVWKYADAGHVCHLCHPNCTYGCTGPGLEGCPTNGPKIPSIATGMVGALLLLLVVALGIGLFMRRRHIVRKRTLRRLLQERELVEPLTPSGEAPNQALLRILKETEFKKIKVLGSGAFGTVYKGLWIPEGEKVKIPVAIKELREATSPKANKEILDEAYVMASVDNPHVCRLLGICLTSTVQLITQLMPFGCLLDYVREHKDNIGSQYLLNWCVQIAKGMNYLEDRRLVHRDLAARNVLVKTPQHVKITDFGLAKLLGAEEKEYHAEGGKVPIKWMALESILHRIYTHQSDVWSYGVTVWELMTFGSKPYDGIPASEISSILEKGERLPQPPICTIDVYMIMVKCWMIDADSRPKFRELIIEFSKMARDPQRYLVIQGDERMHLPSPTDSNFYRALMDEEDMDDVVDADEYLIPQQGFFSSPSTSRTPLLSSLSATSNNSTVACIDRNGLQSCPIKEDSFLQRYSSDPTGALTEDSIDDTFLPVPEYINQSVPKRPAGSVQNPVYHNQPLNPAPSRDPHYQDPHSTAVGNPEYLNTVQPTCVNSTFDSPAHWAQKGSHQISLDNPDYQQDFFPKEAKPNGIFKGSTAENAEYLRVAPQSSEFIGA

Structure (SMILES)	Biochem EGFR % Inhibition (P.167) (EGFR) [%]	PDGF Kinase % Inhibition (P.119) (PDGF-R) [%]
Cc1ccc(C)c(C=C2C(=O)Nc3c(Br)cc(Br)c(C)c32)c1 [10737/H07]	17.2	−17.7
Cc1c(Br)cc(Br)c2c1C(=Cc1ccc3ccccc3c1)C(=O)N2 [10737/H08]	−36.6	−26.9
Cc1c(Br)cc(Br)c2c1C(=Cc1ccc(Oc3ccccc3)cc1)C(=O)N2 [10737/H09]	−15.9	−11.7
Cc1c(Br)cc(Br)c2c1C(=Cc1cccc(Oc3ccc(C(C)(C)C)cc3)c1)C(=O)N2 [10737/H10]	0.3	−12.9
Cc1c(Br)cc(Br)c2c1C(=Cc1cccc(Oc3cccc(C(F)(F)F)c3)c1)C(=O)N2 [10737/H11]	4.5	−16.5
